According to the pKa sets of Baltruschat and Czodrowski (2020):

Compound | pKa
COC(=O)Nc1ccc2c(Nc3ccc(NS(C)(=O)=O)cc3)c3ccccc3nc2c1 | 7.48
O=C(c1ccc(CN2CCOCC2)cc1)N1CCN(C2CCC2)CC1 | 6.5
Cc1c2ccccc2nc2c(C(O)=NCCN(C)C)cccc12 | 4.34
Cc1cc(=O)n(-c2ccccc2)n1C | 1.44
CS(=O)(=O)Nc1ccc(Nc2c3ccccc3nc3cnccc23)cc1 | 5.32
COc1cccc(S(=O)(=O)Nc2cccn(CC(=O)NCc3nc(C(=N)N)cs3)c2=O)c1 | 8.8
CN(c1ccc(Nc2c3ccccc3nc3ccccc23)cc1)S(C)(=O)=O | 6.95
COc1ccc2c(Nc3ccc(NS(C)(=O)=O)cc3OC)c3ccccc3nc2c1 | 7.81
CCCCCCOC(=O)c1ccc(OS(N)(=O)=O)cc1 | 8.52
CCCNC(=O)CN(CCN(CCN(CC(=O)O)CC(=O)O)CC(=O)O)CC(=O)O | 1.8
CN1C=CN(C2NC(C(F)(F)F)=CN2c2ccc(S(N)(=O)=O)cc2)C=C1 (stereo unspecified) | 7.34
CN(C)CCC=C1c2ccccc2CCc2ccccc21 | 9.4
COc1cc(NS(C)(=O)=O)ccc1Nc1c2ccccc2nc2cc(C(F)(F)F)ccc12 | 6.24
CS(=O)(=O)Nc1ccc(Nc2c3ccccc3nc3ncccc23)cc1 | 5.93
COc1ccc([C@@H]2Sc3ccccc3N(CCN(C)C)C(=O)[C@@H]2OC(C)=O)cc1.Cl | 8.06
CC(C)Oc1ccc(-c2nc(-c3ccc4c(c3)CCN(C(CO)CO)CC4)no2)cc1C#N | 7.8
Cc1cc(Br)cc(C)c1N=C1NCCN1 | 10.2
CS(=O)(=O)[O-].NC(=O)CCc1ccc(Nc2c3ccccc3[nH+]c3ccccc23)cc1 | 7.63
Cc1ccc(S(=O)(=O)c2nc(N3CCc4ccccc4C3)sc2Cl)cc1 | -3.78
FC1CCCNC1 (stereo unspecified) | 9.3
COc1ccc2c(c1)N(CCN(C)C)CCO2 | 8.6
COCC1CC(C(=O)NC[C@H]2CCCO2)CN(Cc2nc(N3CCOCC3)oc2C)C1 (stereo partly specified) | 7.8
CC(=O)c1ccc(Nc2c3ccccc3nc3ccccc23)cc1 | 6.12
CCN(CCN(CC(=O)O)CC(=O)O)CCN(CC(=O)O)CC(=O)O | 2.8
CC(NCCC(c1ccccc1)c1ccccc1)c1ccccc1 (stereo unspecified) | 9.04
COc1cc(NS(C)(=O)=O)ccc1Nc1c2ccccc2nc2cc(Cl)ccc12 | 6.84

Compound | pKa
CCCS(=O)(=O)Nc1ccc(Nc2c3ccccc3nc3ccccc23)cc1 | 7.2
Brc1ccccc1Nc1c2ccccc2nc2ccccc12 | 6.41
CCc1ncc[nH]1 | 7.73
CCC(C)NCc1cccc(S(=O)(=O)c2csc(S(N)(=O)=O)c2)c1.Cl (stereo unspecified) | 7.45
Cc1nc2c3c(c(C(=O)N(C)C)cn2c1C)CCC(c1ccccc1)O3 (stereo unspecified) | 7.15
CCCC12CCC(=O)C=C1c1c(cc(OCC(=O)O)c(Cl)c1Cl)C2 (stereo unspecified) | 3.6
CNc1ncnc2c1ncn2Cc1ccccc1F | 3.88
O=S(=O)(O)CCc1ccc(Nc2c3ccccc3nc3ccccc23)cc1 | 7.77
O=C(O)c1ccc(-c2ccc(O[C@H]3O[C@H](CO)[C@@H](O)[C@H](O)[C@@H]3O)cc2)cc1 | 3.88
CC1=CN(c2ccc(S(N)(=O)=O)cc2)C(N2C=CN(C)C=C2)N1 (stereo unspecified) | 7.11
Cc1ccc2nc3ccccc3c(Nc3ccc(NS(C)(=O)=O)cc3)c2c1 | 7.23
CS(=O)(=O)Nc1cccc(Nc2c3ccccc3nc3ccccc23)c1 | 6.85
Cl.O=C(c1ccc(CN2CCOCC2)cc1)N1CCN(C2CC2)CC1 | 5.3
CNC(=O)Nc1ccc(Nc2c3ccccc3nc3ccccc23)cc1 | 7.77
CCCOC(=O)c1ccc(OS(N)(=O)=O)cc1 | 8.03
CN(c1ccccc1Nc1c2ccccc2nc2ccccc12)S(C)(=O)=O | 6.97
Fc1ncc[nH]1 | 2.4
NCC(F)F | 7.3
O=C(c1ccc(Cl)cc1)c1ccc(OC2CN3CCC2CC3)cc1 (stereo unspecified) | 9.1
O=C1N=C(O)NC1(c1ccccc1)c1ccccc1 | 8
Cl.Cl.NCCS | 9.11
CN1CCC[C@H]1c1cccnc1 | 8.1
C[C@]12CC[C@H]3[C@@H](CCC4=CC(=O)CC[C@@]43C)[C@@H]1CC[C@@H]2O | 4.48
COC(=O)C1=C(C)NC(C)=C(C(=O)OCCN(C)Cc2ccccc2)C1c1cccc([N+](=O)[O-])c1 (stereo unspecified) | 7.6
Clc1ncc[nH]1 | 3.55
CS(=O)(=O)Nc1ccc(Nc2c3ccccc3nc3cccc(Cl)c23)cc1 | 5.86

Compound | pKa
COc1cc(NS(C)(=O)=O)ccc1Nc1c2ccccc2nc2c(OCCO)cccc12 | 7.36
O=C(C1CCN(c2ccncn2)CC1)N1CCN(S(=O)(=O)c2ccc(Br)cc2)CC1 | 6.1
NS(=O)(=O)CCc1ccc(Nc2c3ccccc3nc3ccccc23)cc1 | 7.43
Cc1c(-c2noc(-c3ccc(OC(C)C)c(C#N)c3)n2)ccc2c1CCN(C(CO)CO)C2 | 7.3
COc1cc(NS(C)(=O)=O)ccc1Nc1c2ccccc2nc2ccccc12 | 7.43
COc1cccc(S(=O)(=O)Nc2cccn(CC(=O)NCc3ccc(C(=N)N)cc3)c2=O)c1 | 10.2
Fc1cccc(F)c1N=C1NCCN1 | 8.18
Cc1cnc(NCCc2ccccc2)c(=O)n1CC(=O)NCc1ccc(C(=N)N)cc1 | 10.2
COc1ccc(Cl)cc1C(=O)NCCc1ccc(S(=O)(=O)NC(=O)NC2CCCCC2)cc1 | 5.3
CNC(=C[N+](=O)[O-])NCCSCc1csc(CN(C)C)n1 | 6.59
CCN(CC)CCCN1c2cc(F)ccc2CCc2ccc(F)cc21.Cl | 7.6
CN1CCCC(n2nc(Cc3ccc(Cl)cc3)c3ccccc3c2=O)CC1 (stereo unspecified) | 9.54
COc1ccc2c3c1O[C@H]1[C@@H](O)C=C[C@H]4[C@@H](C2)N(C)CC[C@@]341 | 8.2
CS(=O)(=O)Nc1ccc(Nc2c3ccccc3nc3ccccc23)cc1.Cl | 7.19
OCCOCCN1CCN(C(c2ccccc2)c2ccc(Cl)cc2)CC1 (stereo unspecified) | 7.75
CS(=O)(=O)Nc1ccc(Nc2c3ccccc3nc3cc(C#N)ccc23)cc1 | 5.75
CN1CC[C@H](N(C)C(=O)N2CC(c3cc(F)ccc3F)=C[C@@]2(CO)c2ccccc2)[C@@H](F)C1 | 6.6
N#Cc1ccc(Nc2c3ccccc3nc3ccccc23)cc1 | 5.93
CC(C)(C)NCC(O)c1cc(O)cc(O)c1 (stereo unspecified) | 8.7
CCc1cccc(CC)c1NC1=NCCN1 | 10.6
CCCCCS(=O)(=O)Nc1ccc(Nc2c3ccccc3nc3ccccc23)cc1 | 7.19
Nc1ccccn1 | 6.71
O=[N+]([O-])c1ccc(Nc2c3ccccc3nc3ccccc23)cc1 | 5.58
CCCn1c(=O)c2nc(-c3ccc(S(=O)(=O)NCCN(C)C)cc3)[nH]c2n(CCC)c1=O | 8
Cc1nc2c(/C=C\c3ccccc3)cccn2c1C | 7.2
CCS(=O)(=O)c1nc(S(=O)(=O)c2ccc(Cl)cc2)c(N2CCc3ccccc3C2)s1 | -8.66

Compound | pKa
FC1CCNCC1 | 9.4
CCc1cccc2c3c([nH]c12)C(CC)(CC(=O)O)OCC3 (stereo unspecified) | 4.7
Cc1nc2c(/C=C/c3ccccc3)cccn2c1C | 7.2
CCN(CC)CCCC(C)Nc1c2ccc(Cl)cc2nc2ccc(OC)cc12 (stereo unspecified) | 10.2
Br.Oc1noc2c1CNCC2 | 4.3
CN1C=CN(C2NC(C(Cl)(Cl)Cl)=CN2c2ccc(S(N)(=O)=O)cc2)C=C1 (stereo unspecified) | 7.68
NCCCC(F)(F)F | 9.7
CCC1(c2ccccc2)C(=O)NC(=O)NC1=O | 7.5
Clc1cccc(N=C2NCCN2)c1Cl | 8.55
COc1cc(NS(C)(=O)=O)ccc1Nc1c2ccccc2nc2cc(NC(C)=O)ccc12 | 7.56
Clc1cc(Br)cc(Cl)c1N=C1NCCN1 | 7.72
CN(C)C(=O)C1C2c3ccccc3C(c3ccccc32)C1C(=O)N(C)C (stereo unspecified) | -1.34
COc1cc(NS(C)(=O)=O)ccc1Nc1c2ccccc2nc2ccc(I)cc12 | 6.6
CC(=O)N[C@@H](Cc1cc(F)cc(F)c1)[C@H](O)CNC1(c2cc(C(C)(C)C)ncn2)CCCCC1 | 6.7
CS(=O)(=O)Nc1ccc(Nc2c3ccccc3nc3cccnc23)cc1 | 6.9
Clc1ccccc1Nc1c2ccccc2nc2ccccc12 | 6.55
COC(=O)c1ccc(Nc2c3ccccc3nc3ccccc23)cc1 | 6.21
CS(=O)(=O)c1ccc(Nc2c3ccccc3nc3ccccc23)cc1 | 5.81
c1nnn[nH]1 | -3
Nc1ncc[nH]1 | 8.46
Cc1cccc(Nc2c3ccccc3nc3ccccc23)c1 | 7.52
COc1cc(NS(C)(=O)=O)ccc1Nc1c2ccccc2nc2c(C#N)cccc12 | 4.87
CN(C)CCCCc1ccc(C2(C)COC2)cc1 | 9.9
N[C@H]1C[C@@H]1c1ccccc1 | 8.5
c1ccc(-c2ncc[nH]2)nc1 | 5.36
CC(C)(C)NCC(O)c1ccc(O)c(CO)c1 (stereo unspecified) | 9.3

Compound | pKa
Cc1ccc(Nc2c3ccccc3nc3ccccc23)cc1 | 7.72
Cc1ccc(N=C2NCCN2)c(C)c1 | 10.6
CCCCCCOC(=O)NCCCC(C)Nc1cc(OC)cc2cccnc12 (stereo unspecified) | 16.2
NC(=O)c1ccc(Nc2c3ccccc3nc3ccccc23)cc1 | 6.47
Fc1ccc(Nc2c3ccccc3nc3ccccc23)cc1 | 7.5
COc1cc(NS(C)(=O)=O)ccc1Nc1c2ccccc2nc2cc(I)ccc12 | 6.77
CCCCCOC(=O)c1ccc(OS(N)(=O)=O)cc1 | 8.47
CC(=O)Nc1ccc2c(Nc3ccc(NS(C)(=O)=O)cc3)c3ccccc3nc2c1 | 7.34
CNc1cccc(Nc2c3ccccc3nc3ccccc23)c1 | 7.61
CS(=O)(=O)Nc1ccc(Nc2c3ccccc3nc3cc([N+](=O)[O-])ccc23)cc1 | 5.52
Cl.Fc1ccc2c(c1)N(CCCN1CCCC1)c1cc(F)ccc1CC2 | 7.6
CC(CN1c2ccccc2Sc2ccccc21)N(C)C (stereo unspecified) | 9.1
Cc1ccc(C(=O)N(CCCN)[C@@H](c2oc3cc(Cl)ccc3c(=O)c2Cc2ccccc2)C(C)C)cc1 | 8.5
CCCCS(=O)(=O)Nc1ccc(Nc2c3ccccc3nc3ccccc23)cc1 | 7.18
COc1ccc(Nc2c3ccccc3nc3ccccc23)cc1 | 7.94
Cc1cc(C)c(N=C2NCCN2)c(Cl)c1 | 9.59
CC(C)NC1=NS(=O)(=O)c2cc(Cl)ccc2N1 | 9.51
OB(O)c1ccccc1 | 8.8
Cn1ccnc1[N+](=O)[O-] | 0.48
CC12CC3(C)CC(C)(C1)CC(N)(C2)C3 | 10.6
Cc1nc2c(OCc3ccccc3)cccn2c1N | 6.81
CCCCCS(=O)(=O)NCCCc1ccc(OCCOC)cc1Oc1ncc(C(F)(F)F)cc1Cl | 17.5
